Like-named read-outs stand apart in the source and are kept apart here.
Columns and labels:
[1] = Rat pilot developmental toxicity study
Description: Clinical observations, body weights, and food consumption were recorded periodically. On GD 20, a laparohysterectomy was performed on each surviving female. The uteri, placentas, and ovaries were examined; gravid uterine weights, the numbers of fetuses, early and late resorptions, total implantations, and corpora lutea were recorded. The fetuses were weighed, sexed, and examined for external malformations and developmental variations.

[2] = Dog oral cardiovascular (radiotelemetry) study; assay type: in vivo
Description: There were four male and four female dogs per group. Surgical implantation of radiotelemetry devices occurred under anesthesia approximately 1 week prior to study initiation. The test article was administered according to a Latin square design such that each radiotelemetry-implanted dog received each treatment once, with a 7-day washout period between doses. Clinical examinations and detailed physical examinations were performed, and individual body weights were recorded on dosing days.

[3] = Rabbit developmental toxicity study with toxicokinetics; settings: female, New Zealand white, in vivo; for AUC(0-t) / Cmax / Tmax: pregnant rabbits; for AUC(0-t): GD 20, read-out: AUC0-24; for Cmax / Tmax: GD 20
Description: For the toxicology assessment, 27-33 per rabbits per group were dosed.
On GD 29, a laparohysterectomy was performed on each surviving female.

[4] = 2-week dog toxicity and toxicokinetic study; assay type: in vivo
Description: Blood samples were collected on Day 0 and Day 13 of the study from up to 2 animals/gender/group.
Clinical pathology evaluations (hematology and serum chemistry) were performed prior to the initiation of treatment (Week −1) and just prior to the scheduled necropsy. At termination, necropsies were conducted and selected organs were weighed. Selected tissues were examined microscopically for animals in the control and high-dose groups.

[5] = 13-week rat toxicity and toxicokinetic study; assay type: in vivo; settings: for AUC(0-t): read-out: AUC0-24
Description: In two separate experiments, toxicology and toxicokinetic studies were performed. […] Blood samples were collected on Day 0 and Day 87 of the study from up to 3 animals/gender/group.
For toxicology assessment, clinical observations, body weight and food consumptions measures were noted periodically during the study. At termination, clinical pathology evaluations (hematology and serum chemistry) were performed, necropsies conducted, selected organs were weighed, and selected tissues examined microscopically.

Male rat fertility study = assay: Male rat fertility study
Description: Physical signs, body weight, and food consumption were recorded periodically. Males were housed for up to 10 nights 1:1 with untreated females following approximately 10 weeks of treatment. Mating was confirmed by daily examination of females for the presence of a vaginal copulatory plug or sperm in a vaginal lavage. The day of observing a seminal plug and/or sperm was considered GD 0. Females were euthanized on GD 15, 16, or 17 and the uterus of each female rat was examined to determine pregnancy status. Corpora lutea per female were counted. Uterine implantations were counted, and each was classified as a live fetus, dead fetus, or a resorption. At termination, the left cauda epididymis from males were weighed, and frozen. Subsequently, these tissues were prepared and analyzed for sperm number. At necropsy, a sperm suspension from the mid-region of the left vas deferens of each male was prepared and evaluated for percent motile sperm (from ≧150 cells per male).

[6] = female, beagle, in vivo, po, 5 mg/kg/day, females, 5 mg/kg/day, Day 0
[7] = female, beagle, in vivo, po, 5 mg/kg/day, females, 5 mg/kg/day, Day 13
[8] = female, beagle, in vivo, po, 10 mg/kg/day, females, 10 mg/kg/day, Day 0
[9] = female, beagle, in vivo, po, 10 mg/kg/day, females, 10 mg/kg/day, Day 13
[10] = female, beagle, in vivo, po, 20 mg/kg/day, females, 20 mg/kg/day, Day 0
[11] = male, beagle, in vivo, po, 5 mg/kg/day, males, 5 mg/kg/day, Day 0
[12] = male, beagle, in vivo, po, 5 mg/kg/day, males, 5 mg/kg/day, Day 13
[13] = male, beagle, in vivo, po, 10 mg/kg/day, males, 10 mg/kg/day, Day 0
[14] = male, beagle, in vivo, po, 10 mg/kg/day, males, 10 mg/kg/day, Day 13
[15] = male, beagle, in vivo, po, 20 mg/kg/day, males, 20 mg/kg/day, Day 0
[16] = male, beagle, in vivo, po, 20 mg/kg/day, males, 20 mg/kg/day, Day 13
[17] = female, Crl:CD (SD)IGS BR, rat, in vivo, po, 10 mg/kg/day, females, 10 mg/kg/day, Day 0
[18] = female, Crl:CD(SD)IGS BR, rat, in vivo, po, 10 mg/kg/day, females, 10 mg/kg/day, Day 87
[19] = female, Crl:CD(SD)IGS BR, rat, in vivo, po, 25 mg/kg/day, females, 25 mg/kg/day, Day 0
[20] = female, Crl:CD(SD)IGS BR, rat, in vivo, po, 25 mg/kg/day, females, 25 mg/kg/day, Day 87
[21] = female, Crl:CD(SD)IGS BR, rat, in vivo, po, 60 mg/kg/day, females, 60 mg/kg/day, Day 0
[22] = female, Crl:CD(SD)IGS BR, rat, in vivo, po, 60 mg/kg/day, females, 60 mg/kg/day, Day 87
[23] = male, Crl:CD(SD)IGS BR, rat, in vivo, po, 10 mg/kg/day, males, 10 mg/kg/day, Day 0
[24] = male, Crl:CD(SD)IGS BR, rat, in vivo, po, 10 mg/kg/day, males, 10 mg/kg/day, Day 87
[25] = male, Crl:CD(SD)IGS BR, rat, in vivo, po, 25 mg/kg/day, males, 25 mg/kg/day, Day 0
[26] = male, Crl:CD(SD)IGS BR, rat, in vivo, po, 25 mg/kg/day, males, 25 mg/kg/day, Day 87
[27] = male, Crl:CD(SD)IGS BR, rat, in vivo, po, 60 mg/kg/day, males, 60 mg/kg/day, Day 0
[28] = male, Crl:CD(SD)IGS BR, rat, in vivo, po, 60 mg/kg/day, males, 60 mg/kg/day, Day 87

## Clc1ccc([C@]23CNC[C@H]2C3)cc1Cl [amitifadine, (+)-1-(3,4-dichlorophenyl)-3-azabicyclo[3.1.0]hexane]
[1]; 25 mg/kg/day
  mean fetal weight: statistically significant reduction in mean fetal weight
[1]; 50 mg/kg/day, GD 8, 9 or 10
  maternal mortality: all females in the 50 mg/kg/day group were euthanized in extremis
[2]; 10 mg/kg oral
  change in QTcV interval: < 2%
[2]; single oral capsule
  NOEL: 10 mg/kg
[3]; oral, 20 mg/kg/day
  AUC(0-t): 19200 ng·h/mL
[3]; po, oral gavage GD 7-20, read-out: NOAEL for developmental toxicity
  NOAEL: 20 mg/kg/day
[3]; po, oral gavage GD 7-20, read-out: NOAEL for maternal toxicity
  NOAEL: 10 mg/kg/day
[3]; po, 3 mg/kg/day
  Cmax: 309 ng/mL
  Tmax: 1 h
  AUC(0-t): 1320 ng·h/mL
[3]; po, 10 mg/kg/day
  Cmax: 1090 ng/mL
  Tmax: 1 h
  AUC(0-t): 5860 ng·h/mL
[3]; po, 20 mg/kg/day
  Cmax: 3200 ng/mL
  Tmax: 1 h
[4]
  (+) to (−) stereoisomer conversion: no evidence of (+) to (−) stereoisomer conversion
[4]; both sexes, beagle, in vivo, oral capsule, 14 days, read-out: NOAEL for systemic toxicity
  NOAEL at 14 days: 10 mg/kg/day
[4]; female, beagle, in vivo, oral, 10 mg/kg/day, females, 10 mg/kg/day, Day 13, read-out: AUC0-24
  AUC(0-t): 11200 ng·h/mL
[4]; [6]
  Cmax: 1650 ng/mL
  Tmax: 2 h
[4]; female, beagle, in vivo, po, 5 mg/kg/day, females, 5 mg/kg/day, Day 0, read-out: AUC0-24
  AUC(0-t): 5570 ng·h/mL
[4]; [7]
  Cmax: 2040 ng/mL
  Tmax: 1 h
[4]; female, beagle, in vivo, po, 5 mg/kg/day, females, 5 mg/kg/day, Day 13, read-out: AUC0-24
  AUC(0-t): 5610 ng·h/mL
[4]; [8]
  Cmax: 3450 ng/mL
  Tmax: 1 h
[4]; female, beagle, in vivo, po, 10 mg/kg/day, females, 10 mg/kg/day, Day 0, read-out: AUC0-24
  AUC(0-t): 15000 ng·h/mL
[4]; [9]
  Cmax: 2800 ng/mL
  Tmax: 2 h
[4]; [10]
  Cmax: 9950 ng/mL
  Tmax: 1 h
[4]; female, beagle, in vivo, po, 20 mg/kg/day, females, 20 mg/kg/day, Day 0, read-out: AUC0-24
  AUC(0-t): 57100 ng·h/mL
[4]; female, beagle, in vivo, po, 20 mg/kg/day, females, 20 mg/kg/day, Day 13
  Cmax: 3530 ng/mL
[4]; female, beagle, in vivo, po, 20 mg/kg/day, females, 20 mg/kg/day, Day 13, read-out: AUC0-24
  AUC(0-t): 11500 ng·h/mL
[4]; male, beagle, in vivo, oral, 10 mg/kg/day, males, 10 mg/kg/day, Day 13, read-out: AUC0-24
  AUC(0-t): 3170 ng·h/mL
[4]; [11]
  Cmax: 1580 ng/mL
  Tmax: 1 h
[4]; male, beagle, in vivo, po, 5 mg/kg/day, males, 5 mg/kg/day, Day 0, read-out: AUC0-24
  AUC(0-t): 7360 ng·h/mL
[4]; [12]
  Cmax: 1840 ng/mL
  Tmax: 2 h
[4]; male, beagle, in vivo, po, 5 mg/kg/day, males, 5 mg/kg/day, Day 13, read-out: AUC0-24
  AUC(0-t): 7550 ng·h/mL
[4]; [13]
  Cmax: 3830 ng/mL
  Tmax: 1 h
[4]; male, beagle, in vivo, po, 10 mg/kg/day, males, 10 mg/kg/day, Day 0, read-out: AUC0-24
  AUC(0-t): 13800 ng·h/mL
[4]; [14]
  Cmax: 1280 ng/mL
  Tmax: 1 h
[4]; [15]
  Cmax: 11600 ng/mL
  Tmax: 1 h
[4]; male, beagle, in vivo, po, 20 mg/kg/day, males, 20 mg/kg/day, Day 0, read-out: AUC0-24
  AUC(0-t): 41700 ng·h/mL
[4]; [16]
  Cmax: 9280 ng/mL
  Tmax: 1 h
[4]; male, beagle, in vivo, po, 20 mg/kg/day, males, 20 mg/kg/day, Day 13, read-out: AUC0-24
  AUC(0-t): 32800 ng·h/mL
[5]; 60 mg/kg/day, first week
  test article-related deaths (number of females): Three
[5]; all dose groups
  female vs male AUC0-24 and Cmax difference: up to 85%
[5]; both sexes, Crl:CD(SD)IGS BR, rat, in vivo, oral gavage, 13 weeks
  NOAEL at 13 weeks: 10 mg/kg/day
[5]; [17]
  Tmax: 1 h
  AUC(0-t): 10900 ng·h/mL
[5]; female, Crl:CD(SD)IGS BR, rat, in vivo, oral, 10 mg/kg/day, females, 10 mg/kg/day, Day 87
  AUC(0-t): 14400 ng·h/mL
[5]; [18]
  Cmax: 1850 ng/mL
  Tmax: 1 h
[5]; [19]
  Cmax: 2810 ng/mL
  Tmax: 2 h
  AUC(0-t): 31000 ng·h/mL
[5]; [20]
  Cmax: 3700 ng/mL
  Tmax: 2 h
  AUC(0-t): 30200 ng·h/mL
[5]; [21]
  Cmax: 6600 ng/mL
  Tmax: 2 h
  AUC(0-t): 54400 ng·h/mL
[5]; [22]
  Cmax: 6530 ng/mL
  Tmax: 2 h
  AUC(0-t): 88100 ng·h/mL
[5]; females, 25 mg/kg/day
  decrease in mean cumulative body weight gain vs control: 13%
[5]; females, 60 mg/kg/day
  decrease in mean cumulative body weight gain vs control: 13%
[5]; male, Crl:CD(SD)IGS BR, rat, in vivo, oral, 10 mg/kg/day, males, 10 mg/kg/day, Day 87
  AUC(0-t): 8130 ng·h/mL
[5]; [23]
  Cmax: 863 ng/mL
  Tmax: 2 h
  AUC(0-t): 5940 ng·h/mL
[5]; [24]
  Cmax: 1120 ng/mL
  Tmax: 1 h
[5]; [25]
  Cmax: 2360 ng/mL
  Tmax: 2 h
  AUC(0-t): 17400 ng·h/mL
[5]; [26]
  Cmax: 2490 ng/mL
  Tmax: 2 h
  AUC(0-t): 22000 ng·h/mL
[5]; [27]
  Cmax: 3680 ng/mL
  Tmax: 1 h
  AUC(0-t): 36300 ng·h/mL
[5]; [28]
  Cmax: 5010 ng/mL
  Tmax: 1 h
  AUC(0-t): 60100 ng·h/mL
[5]; males, 25 mg/kg/day
  decrease in mean cumulative body weight gain vs control: 16%
[5]; males, 60 mg/kg/day
  decrease in mean cumulative body weight gain vs control: 30%
Male rat fertility study; 13 mg/kg/day
  decrease in sperm count/g cauda epididymis: −18%
  decreased mean body weight gain: 7%
  decreases in fecundity and fertility indices: −9%
Male rat fertility study; 39 mg/kg/day
  decrease in percent motile sperm: −33%
  decreased mean body weight gain: 9%
  decreased sperm count/g cauda epididymis: −44%
  decreases in fecundity and fertility indices: −9%
Male rat fertility study; 39 mg/kg/day, first week
  decreased mean food consumption: −60%
Male rat fertility study; 39 mg/kg/day, initial week
  mean body weight loss: -24 g
Male rat fertility study; male, Crl:CD(SD) IGS BR, rat, in vivo, 14 weeks
  NOEL general and reproductive toxicity: 4 mg/kg/day
